Results on one compound are retold here after ChEMBL document CHEMBL5380832, “Serine-/Cysteine-Based sp2-Iminoglycolipids as Novel TLR4 Agonists: Evaluation of Their Adjuvancy and Immunotherapeutic Properties in a Murine Model of Asthma” (J Med Chem, 2023).

Calls of active or inactive are those of the source. The rule behind the calls is not given here.

Sequence of Toll-like receptor 2 (Homo sapiens) (O60603 whole entry): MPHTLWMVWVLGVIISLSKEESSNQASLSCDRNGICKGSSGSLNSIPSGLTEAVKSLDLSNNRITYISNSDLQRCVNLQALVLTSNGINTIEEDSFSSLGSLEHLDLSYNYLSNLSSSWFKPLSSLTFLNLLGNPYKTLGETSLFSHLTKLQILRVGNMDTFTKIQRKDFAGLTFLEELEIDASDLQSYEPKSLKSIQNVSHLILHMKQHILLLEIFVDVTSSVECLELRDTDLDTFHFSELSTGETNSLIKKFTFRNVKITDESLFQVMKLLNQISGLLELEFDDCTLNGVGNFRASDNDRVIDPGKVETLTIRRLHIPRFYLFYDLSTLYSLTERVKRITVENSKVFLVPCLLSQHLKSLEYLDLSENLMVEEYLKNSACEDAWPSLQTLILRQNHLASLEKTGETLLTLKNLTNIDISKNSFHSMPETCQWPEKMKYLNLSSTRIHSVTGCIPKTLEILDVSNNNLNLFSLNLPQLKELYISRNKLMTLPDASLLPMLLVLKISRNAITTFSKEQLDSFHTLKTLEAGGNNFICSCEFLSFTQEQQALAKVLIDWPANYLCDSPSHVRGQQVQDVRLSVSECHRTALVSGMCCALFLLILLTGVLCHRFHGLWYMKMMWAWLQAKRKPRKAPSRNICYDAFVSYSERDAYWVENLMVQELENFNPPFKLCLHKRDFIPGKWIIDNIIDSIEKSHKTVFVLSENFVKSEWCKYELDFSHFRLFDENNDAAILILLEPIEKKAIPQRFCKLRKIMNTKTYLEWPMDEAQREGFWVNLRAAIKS

For the first data set, the system named is Splenocyte. Kind of data set: Immunostimulatory activity in wild-type C57BL/6JNarl mouse splenocytes assessed as increase in IFN-gamma expression level at 10 to 25 uM incubated for 48 hrs by ELISA. In kind it is functional, cell-based. The conditions noted are these: dose 10-25 µM.
Take `CCCCCCCCCCCCNC(=O)[C@H](CS[C@@H]1[C@H](O)[C@@H](O)[C@H](O)[C@H]2COC(=O)N21)NC(=O)CCCCCCCCCCC`: the result was Active.

The next data set deals with Splenocyte. Kind of data set: Immunostimulatory activity in wild-type C57BL/6JNarl mouse splenocytes assessed as increase in IL-6 expression level at 10 to 25 uM incubated for 48 hrs by ELISA. In kind it is functional, cell-based. Particulars: dose 10-25 µM.
As to `CCCCCCCCCCCCNC(=O)[C@H](CS[C@@H]1[C@H](O)[C@@H](O)[C@H](O)[C@H]2COC(=O)N21)NC(=O)CCCCCCCCCCC`, the result was inactive.

A further data set concerns Splenocyte. In words: Immunostimulatory activity in MyD88 knockout C57BL/6JNarl mouse splenocytes assessed as increase in IFN-gamma expression level at 10 to 25 uM incubated for 48 hrs by ELISA. In kind it is functional, cell-based. The conditions noted are these: dose 10-25 µM.
Regarding `CCCCCCCCCCCCNC(=O)[C@H](CS[C@@H]1[C@H](O)[C@@H](O)[C@H](O)[C@H]2COC(=O)N21)NC(=O)CCCCCCCCCCC`, the result was inactive.

The next data set concerns Splenocyte. In words: Immunostimulatory activity in MyD88 knockout C57BL/6JNarl mouse splenocytes assessed as increase in IL-6 expression level at 10 to 25 uM incubated for 48 hrs by ELISA. In kind it is functional, cell-based. The conditions noted are these: dose 10-25 µM.
For `CCCCCCCCCCCCNC(=O)[C@H](CS[C@@H]1[C@H](O)[C@@H](O)[C@H](O)[C@H]2COC(=O)N21)NC(=O)CCCCCCCCCCC`, the outcome was inactive.

In the next data set the target is Toll-like receptor 4 (Homo sapiens) (UniProt O00206). Kind of data set: Agonist activity at human TLR4 expressed in human HEK293 cells co-expressing human MD-2 and CD14 assessed as IL-8 expression level at 10 to 25 uM incubated for 24 hrs by ELISA. In kind it is cell-based. The conditions noted are these: filed as agonist, dose 10-25 µM.
Sequence of Toll-like receptor 4 (Homo sapiens) (O00206 whole entry): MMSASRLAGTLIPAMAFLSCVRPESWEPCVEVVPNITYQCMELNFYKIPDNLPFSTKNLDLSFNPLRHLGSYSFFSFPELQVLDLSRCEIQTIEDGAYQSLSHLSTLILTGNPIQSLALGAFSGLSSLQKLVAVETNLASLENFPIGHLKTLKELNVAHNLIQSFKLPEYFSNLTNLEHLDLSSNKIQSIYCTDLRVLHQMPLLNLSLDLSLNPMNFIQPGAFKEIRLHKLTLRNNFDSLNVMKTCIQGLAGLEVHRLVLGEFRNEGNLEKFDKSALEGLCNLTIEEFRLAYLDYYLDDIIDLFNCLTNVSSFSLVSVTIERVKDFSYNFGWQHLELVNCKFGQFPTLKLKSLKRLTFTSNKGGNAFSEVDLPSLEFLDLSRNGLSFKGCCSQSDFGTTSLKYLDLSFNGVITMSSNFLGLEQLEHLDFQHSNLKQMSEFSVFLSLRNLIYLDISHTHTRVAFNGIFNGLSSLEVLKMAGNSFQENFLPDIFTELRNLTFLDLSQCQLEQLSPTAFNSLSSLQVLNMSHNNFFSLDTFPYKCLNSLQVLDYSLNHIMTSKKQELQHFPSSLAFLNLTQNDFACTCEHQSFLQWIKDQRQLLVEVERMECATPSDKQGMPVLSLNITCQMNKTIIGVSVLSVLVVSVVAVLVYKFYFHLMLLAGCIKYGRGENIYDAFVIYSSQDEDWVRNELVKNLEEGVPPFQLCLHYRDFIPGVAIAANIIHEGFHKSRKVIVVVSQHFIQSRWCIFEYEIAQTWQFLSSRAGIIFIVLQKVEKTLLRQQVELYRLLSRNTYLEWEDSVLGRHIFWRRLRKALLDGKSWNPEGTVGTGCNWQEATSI
With `CCCCCCCCCCCCNC(=O)[C@H](CS[C@@H]1[C@H](O)[C@@H](O)[C@H](O)[C@H]2COC(=O)N21)NC(=O)CCCCCCCCCCC`, the result was Active.

Another data set shares this target. In words: Activation of TLR4 signaling in human HEK293 cells assessed as IL-8 expression level at 10 to 25 uM incubated for 24 hrs by ELISA. In kind it is cell-based. Particulars: dose 10-25 µM.
For `CCCCCCCCCCCCNC(=O)[C@H](CS[C@@H]1[C@H](O)[C@@H](O)[C@H](O)[C@H]2COC(=O)N21)NC(=O)CCCCCCCCCCC`, the outcome was inactive.

The next data set has the same target. Kind of data set: Activation of TLR4 signaling in human HEK293 cells expressing human MD-2 and CD14 assessed as IL-8 expression level at 10 to 25 uM incubated for 24 hrs by ELISA. The conditions noted are these: dose 10-25 µM. In kind it is cell-based.
Consider `CCCCCCCCCCCCNC(=O)[C@H](CS[C@@H]1[C@H](O)[C@@H](O)[C@H](O)[C@H]2COC(=O)N21)NC(=O)CCCCCCCCCCC`, for which the result was inactive.

Another data set has as its target Toll-like receptor 2 (Homo sapiens) (UniProt O60603). In words: Agonist activity at human TLR2 expressed in human HEK293 cells assessed as IL-8 expression level at 10 to 25 uM incubated for 24 hrs by ELISA. In kind it is cell-based. Particulars: dose 10-25 µM.
For the compound `CCCCCCCCCCCCNC(=O)[C@H](CS[C@@H]1[C@H](O)[C@@H](O)[C@H](O)[C@H]2COC(=O)N21)NC(=O)CCCCCCCCCCC`, the result was inactive.

Another data set has as its system Splenocyte. Kind of data set: Cytotoxicity in wild-type C57BL/6JNarl mouse splenocytes assessed as reduction in cell viability at 25 uM by MTT assay.
Conditions: not given
In kind it is toxicity, cell-based.
Turning to `CCCCCCCCCCCCNC(=O)[C@H](CS[C@@H]1[C@H](O)[C@@H](O)[C@H](O)[C@H]2COC(=O)N21)NC(=O)CCCCCCCCCCC`, the Activity entry is reported as “Non-Toxic”.

A further data set deals with HEK293. Kind of data set: Cytotoxicity in human HEK293 cells assessed as reduction in cell viability at 25 uM by MTT assay. The conditions noted are these: hek293, 25 µM. In kind it is toxicity, cell-based.
Take `CCCCCCCCCCCCNC(=O)[C@H](CS[C@@H]1[C@H](O)[C@@H](O)[C@H](O)[C@H]2COC(=O)N21)NC(=O)CCCCCCCCCCC`: the Activity entry was “Non-Toxic”.

For the next data set, the target named is T1, Antigen-presenting glycoprotein CD1d1 (Mus musculus) (UniProt P11609).
T1 sequence (whole entry): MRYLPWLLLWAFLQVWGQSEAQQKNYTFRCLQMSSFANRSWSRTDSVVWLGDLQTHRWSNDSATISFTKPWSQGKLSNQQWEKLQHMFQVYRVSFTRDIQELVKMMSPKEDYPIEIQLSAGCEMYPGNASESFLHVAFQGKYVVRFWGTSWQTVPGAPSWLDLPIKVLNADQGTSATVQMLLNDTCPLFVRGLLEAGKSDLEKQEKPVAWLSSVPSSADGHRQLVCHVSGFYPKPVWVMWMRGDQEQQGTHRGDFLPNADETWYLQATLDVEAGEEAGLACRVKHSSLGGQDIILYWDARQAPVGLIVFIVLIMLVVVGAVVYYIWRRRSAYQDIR
Kind of data set: Activation of CD1d signaling in mouse iNKT hybridoma DN3A4-1.2 cells co-cultured with mouse A20 cells expressing CD1d assessed as IL-2 expression level at 10 to 25 uM incubated for 24 hrs by ELISA. The conditions noted are these: iNKT hybridoma DN3A4-1.2 cell, dose 10-25 µM. In kind it is cell-based.
As to `CCCCCCCCCCCCNC(=O)[C@H](CS[C@@H]1[C@H](O)[C@@H](O)[C@H](O)[C@H]2COC(=O)N21)NC(=O)CCCCCCCCCCC`, the result was inactive.

The target in a further data set is T1, Antigen-presenting glycoprotein CD1d1 (Mus musculus). In words: Binding affinity to mouse CD1d in alpha-GalCer stimulated mouse iNKT hybridoma DN3A4-1.2 cells expressing co-cultured with mouse A20 cells expressing mouse CD1d assessed as inhibition of alpha-GlaCer activity by measuring IL-2 expression level at 10 to 25 uM incubated for 24 hrs by ELISA. In kind it is cell-based. Particulars: iNKT hybridoma DN3A4-1.2 cell, dose 10-25 µM.
Take `CCCCCCCCCCCCNC(=O)[C@H](CS[C@@H]1[C@H](O)[C@@H](O)[C@H](O)[C@H]2COC(=O)N21)NC(=O)CCCCCCCCCCC`: the result was inactive.

The subject of another data set is PBMC. Kind of data set: Immunostimulatory activity in human PBMC cells assessed as increase in IFN-gamma expression level at 10 to 25 uM by ELISA. In kind it is functional, cell-based. Particulars: dose 10-25 µM.
In the case of `CCCCCCCCCCCCNC(=O)[C@H](CS[C@@H]1[C@H](O)[C@@H](O)[C@H](O)[C@H]2COC(=O)N21)NC(=O)CCCCCCCCCCC`, the result was inactive.

The next data set concerns PBMC. Kind of data set: Immunostimulatory activity in human PBMC cells assessed as increase in IL-6 expression level at 10 to 25 uM by ELISA. In kind it is functional, cell-based. Particulars: dose 10-25 µM.
`CCCCCCCCCCCCNC(=O)[C@H](CS[C@@H]1[C@H](O)[C@@H](O)[C@H](O)[C@H]2COC(=O)N21)NC(=O)CCCCCCCCCCC`: the outcome was inactive.

The next data set deals with Mus musculus. In words: Immunostimulatory activity in C57BL/6JNarl mouse assessed as increase in IFN-gamma expression level in serum at 20 microg/g, ip and measured after 2 hrs by ELISA. In kind it is functional, organism-based. The conditions noted are these: dose 20.0 µg/g.
As for `CCCCCCCCCCCCNC(=O)[C@H](CS[C@@H]1[C@H](O)[C@@H](O)[C@H](O)[C@H]2COC(=O)N21)NC(=O)CCCCCCCCCCC`, the outcome was Active.

Another data set concerns Mus musculus. In words: Immunostimulatory activity in C57BL/6JNarl mouse assessed as increase in IL-4 expression level in serum at 20 microg/g, ip and measured after 2 hrs by ELISA. In kind it is functional, organism-based. The conditions noted are these: dose 20.0 µg/g.
As to `CCCCCCCCCCCCNC(=O)[C@H](CS[C@@H]1[C@H](O)[C@@H](O)[C@H](O)[C@H]2COC(=O)N21)NC(=O)CCCCCCCCCCC`, the outcome was Active.

The subject of another data set is Mus musculus. Kind of data set: Immunostimulatory activity in C57BL/6JNarl mouse assessed as increase in IFN-gamma expression level in serum at 20 microg/g, ip and measured after 18 hrs by ELISA. In kind it is functional, organism-based. The conditions noted are these: dose 20.0 µg/g.
With `CCCCCCCCCCCCNC(=O)[C@H](CS[C@@H]1[C@H](O)[C@@H](O)[C@H](O)[C@H]2COC(=O)N21)NC(=O)CCCCCCCCCCC`, the outcome was Active.

Another data set deals with Mus musculus. Kind of data set: Immunostimulatory activity in C57BL/6JNarl mouse assessed as increase in IL-4 expression level in serum at 20 microg/g, ip and measured after 18 hrs by ELISA. The conditions noted are these: dose 20.0 µg/g. In kind it is functional, organism-based.
For `CCCCCCCCCCCCNC(=O)[C@H](CS[C@@H]1[C@H](O)[C@@H](O)[C@H](O)[C@H]2COC(=O)N21)NC(=O)CCCCCCCCCCC`, the outcome was Active.

In another data set the test system is Mus musculus. Kind of data set: Immunomodulatory activity in OVA-sensitized asthmatic BALB/c mouse model assessed as inhibition of methacholine induced airway hyperreactivity by measuring pulmonary resistance at 20 microg/g, ip administered after day 14 OVA sensitization. Details: scale not given: the % may be the effect or the level left. In kind it is functional. Particulars: dose 20 µg/g.
For the compound `CCCCCCCCCCCCNC(=O)[C@H](CS[C@@H]1[C@H](O)[C@@H](O)[C@H](O)[C@H]2COC(=O)N21)NC(=O)CCCCCCCCCCC`, the Activity is 50%.

A further data set relates to Mus musculus. Kind of data set: Immunomodulatory activity in OVA-sensitized asthmatic BALB/c mouse model assessed as reduction in IL-4 expression level in BALF at 20 microg/g, ip administered after day 14 OVA sensitization by ELISA. In kind it is functional, organism-based. The conditions noted are these: dose 20.0 µg/g.
As for `CCCCCCCCCCCCNC(=O)[C@H](CS[C@@H]1[C@H](O)[C@@H](O)[C@H](O)[C@H]2COC(=O)N21)NC(=O)CCCCCCCCCCC`, the outcome was Active.

A further data set concerns Mus musculus. In words: Immunomodulatory activity in OVA-sensitized asthmatic BALB/c mouse model assessed as reduction in IL-4 expression level in lung at 20 microg/g, ip administered after day 14 OVA sensitization by ELISA. The conditions noted are these: dose 20.0 µg/g. In kind it is functional, organism-based.
`CCCCCCCCCCCCNC(=O)[C@H](CS[C@@H]1[C@H](O)[C@@H](O)[C@H](O)[C@H]2COC(=O)N21)NC(=O)CCCCCCCCCCC`: the result was Active.
